Data on one compound can be found in US20240261333A1, “NOVEL TARGETS FOR ENHANCING ANTI-TUMOR IMMUNITY” (THE BROAD INSTITUTE, INC., priority 2021, published 2024).

Common to all, as to assay type: cell-based, human
Data set [1] relates to A375 cells overexpressing B3GNT2. Kind of data set: Intra- and extra-cellular poly-LacNAc by tomato lectin staining, flow cytometry. The following applies: A375 overexpressing B3GNT2, pretreated with different concentrations of inhibitor. As for the experimental part: (§1) For glycosylation inhibition, cells were treated with 20 μg/mL Kifunensine (Cayman Chemical 10009437) or 2 mM Benzyl 2-acetamido-2-deoxy-alpha-D-galactopyranoside (BAG; Millipore Sigma B4894-100MG) for 48 h to inhibit N- and O-glycosylation respectively unless otherwise indicated. For MCL1 inhibition, cells were treated with 1-10 μM of S63845 (Selleck Chemicals S8383) or AZD5991 (Selleck Chemicals S8643) for 4 h before incubation with T cells. Both glycosylation and MCL1 inhibitors were maintained at indicated concentrations during co-culture with T cells.
Per condition, 5×10^5 cells were pelleted at 200×g for 5 min and washed once with PBS. Cell were fixed in 4% Formaldehyde in PBS at 4° C. for 10 mins. […] For each sample, 10,000 cells were analyzed on a CytoFLEX Flow Cytometer (Beckman Coulter) and quantified with FlowJo (FlowJo). For each experiment, median fluorescence values for 3 biological replicates were compared to determine statistical significance.

Data set [2] concerns A375 (NY-ESO-1+, HLA-A2+) melanoma cells. Kind of data set: T cell cytotoxicity assay (CellTiter-Glo), A375 against ESO T cells. As for the experimental part: (§2) Expanded T cells were thawed and maintained in culture media for 8-10 h before incubation with cancer cells. Cancer cells were seeded in 96-well plates and allowed to attach for 3-4 h before T cells were added at the appropriate effector to target cell (E:T) ratio. Paired controls with no T cells added were included for each condition. After 18 h, cancer cells were washed twice with PBS to remove T cells, passaged, and cultured for 2 days. Primary patient-derived cell models were not passaged after T cell co-culture. Viability was measured using CellTiter-Glo (Promega G7571). For each E:T ratio, percent survival was calculated as viability of the cells incubated with T cells divided by viability of the paired control that was not incubated with T cells. For example, CD274-overexpressing melanoma cells that were co-cultured with ESO T cells were compared to CD274-overexpressing melanoma cells that were cultured without T cells in parallel. As an alternative cytotoxicity assay, A375 cells stably expressing Gaussia luciferase were co-cultured with ESO T cells. At each time point, 10% of cell culture media was used for the Gaussia luciferase assay (Targeting Systems GAR-2B) to directly measure cytotoxicity.
as §1

Data set [3] relates to CCLF_MELM_0011_T primary patient-derived melanoma model. Kind of data set: T cell cytotoxicity assay, primary patient-derived melanoma model against AXL or HER2 CAR T cells. The following applies: CCLF_MELM_0011_T treated with small molecule inhibitor. Here is the method:
as §2, with “cytotoxicity. […]” for “cytotoxicity.”

Data set [4] concerns A375 cells overexpressing B3GNT2. Kind of data set: Binding of recombinant T cell proteins to A375 cells, flow cytometry. As for the experimental part: as §1
Per condition, 5×10^5 cells were pelleted at 200×g for 5 min and washed once with PBS. Cell were fixed in 4% Formaldehyde in PBS at 4° C. for 10 mins. Cells were washed twice with PBS and resuspended in PBS with 25 μg/mL recombinant Fc chimera proteins [PVRIG (R&D Systems 9365-PV-050), CD226 (R&D Systems 666-DN-050), NKG2D (R&D 1299-NK-050), TREML2 (R&D Systems 3259-TL-050), CD2 (R&D Systems 1856-CD-050), CD96 (R&D Systems 9360-CD-050), TIGIT (BPS Bioscience 71186), CD27 (BPS Bioscience 71176), or 4-1BB (TNFRSF9; Sino Bio 10041-H03H)], 0.1 μg/mL HLA-A2:NY-ESO-1 Fab (Stewart-Jones et al., 2009), 5 μg/mL Fas antibody (Millipore Sigma 05-201), 25 μg/mL TNFRSF10B antibody (Novus Biologicals NB100-56618, 1:200), or Dylight 649 labeled Tomato Lectin (Vector Laboratories DL-1178, 1:100). Cells were incubated at 4° C. for 1 h. Cells were washed twice with PBS and resuspended in PBS with the appropriate secondary antibody [IgG Fc PE (Thermo Fisher Scientific 12-4998-82, 1:50), His Tag Alexa Fluor 647 (Thermo Fisher Scientific MA121315A647), mouse Alexa Fluor 568 (Thermo Fisher Scientific A-11031), or rabbit Alexa Fluor 647 (Thermo Fisher Scientific A-21244)]. Cells stained with Tomato Lectin were not incubated with additional secondary antibodies. […] For each sample, 10,000 cells were analyzed on a CytoFLEX Flow Cytometer (Beckman Coulter) and quantified with FlowJo (FlowJo). For each experiment, median fluorescence values for 3 biological replicates were compared to determine statistical significance.

Turning to `O=C1N[C@@H]2[C@@H](O)[C@@H](O)[C@H](O)[C@@H](CO)N2C1=O` [kifunensine], the “poly-LacNAc measured by tomato lectin staining” value in data set [1] is listed as “reduced poly-LacNAc added by B3GNT2 in a dosage-dependent manner”. The “Cell survival against T cell cytotoxicity, A375” value in data set [2] (A375 treated with small molecule inhibitor) is recorded as “reduced survival”. The “Cell survival against T cell cytotoxicity” value in data set [2] (B3GNT2-overexpressing A375 pretreated with inhibitor, E:T ratio of 3, kifunensine having a stronger effect) was “reduced A375 survival”. In addition, the “Cell survival against T cell cytotoxicity, primary patient-derived melanoma model” value in data set [3] is “reduced survival”. Moreover, the “Binding of recombinant T cell proteins to A375 cells” value in data set [4] (B3GNT2-overexpressing A375 treated with inhibitor, CD2, 4-1BB, TREML2, NKG2D) is “rescued the reduction in T cell protein binding”. For the same compound, the “HLA-A2:NY-ESO-1 antibody binding to A375 cells” value in data set [4] (B3GNT2-overexpressing A375 treated with kifunensine) is reported as “further reduced binding”.
